1 molecule from PMC8991960, “A Bivalent Activatable Fluorescent Probe for Screening and Intravital Imaging of Chemotherapy‐Induced Cancer Cell Death” (Angewandte Chemie (International Ed. in English), 2021) can be followed below.

Assay [1] relates to MMTV-PyMT mammary gland tumours. In words: Intravital imaging of cisplatin-induced apoptosis in breast cancer model. In kind it is in vivo, mouse. As to conditions: cisplatin 10 mg kg-1 i.p., Apotracker Red 650 ng i.v. 72 h later, two-photon microscopy, MMTV-PyMT;ACTB-ECFP mice. The source says:
Optical intravital imaging is increasingly used for the preclinical evaluation of anticancer drugs in vivo. Although imaging modalities like computed tomography, positron emission tomography and magnetic resonance imaging can help to visualise whole intact organs in a non‐invasive manner,[26] they lack the spatiotemporal resolution needed to study dynamic interactions between individual tumour and stromal cells. This feature is critical to understand the mechanism of action of anticancer drugs and how they can affect interactions between cancer cells and immune cells in the tumour microenvironment.[27] Intravital imaging heavily relies on the acquisition of fluorescence signals using multiphoton microscopy, which provides cellular resolution with deep tissue penetration (≈500 μm) and minimal photodamage.[28] […] First, we analysed the chemical stability of Apotracker Red for in vivo studies by incubating the probe in mouse serum. […] When primary tumours measured around 0.5–1 cm in diameter, we administered cisplatin intraperitoneally (10 mg kg^−1). […]
were centrifuged (300 g, 5 min, r.t.), washed once with PBS before addition of 0.05% Trypsin, 0.02% ethylenediaminetetraacetic acid (EDTA) in Hank’s balanced salt solution (HBSS) and incubation at 37°C for 5 min. […] Histograms and mean fluorescence intensities of apoptotic cells were measured on a 5L LSR flow cytometer under the following […]

The subject of assay [2] is 8 cancer cell lines. In words: Classification of drugs by Apotracker Red (apoptosis) and CellTrace Violet (proliferation) staining. It counts as cell-based. As to conditions: 8 cell lines, 24 h treatment, single-dose screen. Here is the method:
To corroborate the versatility of Apotracker Red, we built a screening platform including a total of 8 cancer cell lines of variable origin and pathogenesis: breast (MCF7, MDA‐MB231 and MMTV‐PyMT (mouse mammary tumour virus‐polyoma middle tumour‐antigen)[23]), lung (A549), prostate (PC3 and LnCap), blood cells (Jurkat) and colon (HT29). All cell lines were cultured under standard conditions and seeded with the fluorescent proliferation marker CellTrace^TM Violet (CV) in 96‐well plates (10–20×10^3 cells/well) for high‐throughput flow cytometry. After drug treatment (i.e., drug addition plus 24 h incubation), Apotracker Red was incubated for 10 min and fluorescence readings were directly acquired without any additional processing steps (Figure 3 a). […] Using this platform, we tested a collection of FDA‐approved drugs in all cancer cell lines and compared their ability to induce apoptosis using Apotracker Red as the reporter. Specifically, we included DNA alkylation agents (e.g., cyclophosphamide, cisplatin, 5‐fluorouracil, gemcitabine, temozolomide), proteasomal and mitotic inhibitors (e.g., bortezomib, docetaxel, paclitaxel) and antagonists of specific proteins (e.g., dexamethasone, tamoxifen; Figure 3 b).
First, all drugs were tested in the 8 different cell lines to determine the percentages of Apotracker Red‐stained apoptotic cells compared to no treatment (Figure 3 c; Figure S8). […] All 5 drugs were tested at multiple concentrations (from 1 to 100 μM) and with incubation times up to 48 h to examine whether drugs could block cell proliferation at late stages (Figures S9–S13).
Figure S8. Heatmap of relative inhibition of cell proliferation (as indicated by staining of CellTraceTM Violet) after treatment of cancer cell lines with different drugs. Data presented as an average of 3 independent experiments. Cells were stained on day 0 with CellTraceTM Violet (1 µM) and mean fluorescence intensities were determined on the 5L LSR after 24 h of treatment with the different drugs.
(1 picture or pasted object on this page, not shown here) […]
Cell culture. MCF-7, A549, LnCap, MDA-MB-231, Jurkat T cells and PC3 cells were obtained from American Type Culture Collection (ATCC). HT29 cells were purchased from Merck (S i g m a Aldrich, UK). Mouse Mammary Tumour Virus –Polyoma Middle T antigen (MMTV -PyMT) cells were provided by the lab of Mikala Egeblad (CSHL, US). MMTV-PyMT, MCF-7, LnCap, MDA-MB-231 and Jurkat T cells were cultured in Roswell Park Memorial Institute (RPMI) 1640 Medium supplemented with 10% fetal bovine serum (FBS) , 100 U mL-1 penicillin and 0.1 mg mL-1 streptomycin. A549 and PC3 cells were cultured in Dublecco’s modified Eagle’s medium (DMEM) supplemented with 10% fetal bovine serum (FBS), 100 U mL-1 penicillin and 0.1 mg […]
Flow cytometry drug screen.

In the case of `N.N.[Cl][Pt][Cl]` [cisplatin], in assay [1], the “Apotracker Red fluorescence in tumours of treated mice (intravital imaging)” value is “strong red fluorescent signals indicating cancer cell death induced by the drug”. The “Drug group by Apotracker Red (apoptosis) and CV (proliferation) staining” value in assay [2] was “induced apoptosis and decreased cell proliferation”.
